Experiments:
human and rat GPR-14 = test: Radioligand binding ([125I] h-U-II, HEK-293 cell membranes); settings: [125I] h-U-II binding to HEK-293 membranes with cloned GPR-14; species not given
Method: HEK-293 cell membranes containing stable cloned human and rat GPR-14 (20 ug/assay) were incubated with 200 pM [125I] h-U-II (200 Ci/mmol^−1 in the presence of increasing concentrations of test compounds in DMSO (0.1 nM to 10 uM), in a final incubation volume of 200 ul (20 mM Tris-HCl, 5 mM MgCl2). Incubation was done for 30 minutes at room temperature followed by filtration GF/B filters with Brandel cell harvester. ^125I labeled U-II binding was quantitated by gamma counting. Nonspecific binding was defined by ^125I U-II binding in the presence of 100 nM of unlabeled human U-II. Analysis of the data was performed by nonlinear least square fitting.

rat-isolated aorta = settings: cited from earlier work

| Compound | Ki (human and rat GPR-14) [nM] | contractile activity (rat-isolated aorta) |
| --- | --- | --- |
| CN(C)CCCOc1ccc(CN2CC[C@H](NC(=O)[C@H](Cc3ccccc3)NC(=O)c3ccc(Br)cc3)C2)cc1 [Example 15] | 390 | – |
| CC(C)[C@H](NC(=O)[C@@H]1CSSC[C@H](NC(=O)[C@H](CC(=O)O)NC(=O)[C@@H]2CCCN2C(=O)[C@@H](NC(=O)[C@@H](N)CCC(=O)O)[C@@H](C)O)C(=O)N[C@@H](Cc2ccccc2)C(=O)N[C@@H](Cc2c[nH]c3ccccc23)C(=O)N[C@@H](CCCCN)C(=O)N[C@@H](Cc2ccc(O)cc2)C(=O)N1)C(=O)O [Human Urotensin-II] | – | most potent contractile agonist identified to date |
